According to the supplement of paper PMC10307832:

Assays:
Experiment in all cases: relative viability (nuclei count vs DMSO), 5 days (fraction); higher = more cells survive
Sulindac + Trametinib = compound: CC1=C(CC(=O)O)c2cc(F)ccc2/C1=C\c1ccc([S+](C)[O-])cc1 [Sulindac] + CC(=O)Nc1cccc(-n2c(=O)n(C3CC3)c(=O)c3c(Nc4ccc(I)cc4F)n(C)c(=O)c(C)c32)c1 [Trametinib] (partner 0.02 µM)
Procedure, shortened: (§1)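 Values are medians from duplicate plates. Each reflects relative viability, defined as the nuclei count of treated wells over that of vehicle wells. Lung cancer cell lines in 1536-well plates were pin-tool dosed one day after seeding with one drug alone or with a fixed anchor-drug dose plus five library-drug doses (not always all listed) in √10 steps, then fixed, stained and imaged at 4× after 5 days.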

Sulindac + Foretinib = compound: CC1=C(CC(=O)O)c2cc(F)ccc2/C1=C\c1ccc([S+](C)[O-])cc1 [Sulindac] + COc1cc2c(Oc3ccc(NC(=O)C4(C(=O)Nc5ccc(F)cc5)CC4)cc3F)ccnc2cc1OCCCN1CCOCC1 [Foretinib] (partner 0.25 µM)
Procedure, shortened: as §1

Sulindac + OSI-027 = compound: CC1=C(CC(=O)O)c2cc(F)ccc2/C1=C\c1ccc([S+](C)[O-])cc1 [Sulindac] + COc1cccc2cc(-c3nc([C@H]4CC[C@H](C(=O)O)CC4)n4ncnc(N)c34)[nH]c12 [OSI-027] (partner 0.5 µM)
Procedure, shortened: as §1

[1] = compound: O=c1[nH]cc(F)c(=O)[nH]1 [5-Fluorouracil] + C[C@]1(O)C[C@@H](c2nc(-c3ccc4ccc(-c5ccccc5)nc4c3)c3c(N)nccn32)C1 [Linsitinib] (partner 1 µM)
Procedure, shortened: as §1

Row | Cell Line | relative viability (Sulindac + Trametinib; first compound 0.08 µM) | relative viability (Sulindac + Trametinib; first compound 0.253 µM) | relative viability (Sulindac + Trametinib; first compound 0.8 µM) | relative viability (Sulindac + Trametinib; first compound 2.53 µM) | relative viability (Sulindac + Trametinib; first compound 8 µM) | relative viability (Sulindac + Foretinib; first compound 0.08 µM) | relative viability (Sulindac + Foretinib; first compound 0.253 µM) | relative viability (Sulindac + Foretinib; first compound 0.8 µM) | relative viability (Sulindac + Foretinib; first compound 2.53 µM) | relative viability (Sulindac + Foretinib; first compound 8 µM) | relative viability (Sulindac + OSI-027; first compound 0.08 µM) | relative viability (Sulindac + OSI-027; first compound 0.253 µM) | relative viability (Sulindac + OSI-027; first compound 0.8 µM) | relative viability (Sulindac + OSI-027; first compound 2.53 µM) | relative viability (Sulindac + OSI-027; first compound 8 µM) | relative viability ([1]; first compound 0.02 µM) | relative viability ([1]; first compound 0.2 µM) | relative viability ([1]; first compound 0.6325 µM) | relative viability ([1]; first compound 2 µM)
1 | NCI-H1975 | 0.382 | 0.38 | 0.36 | 0.356 | 0.367 | 1.12 | 1.01 | 1.05 | 0.993 | 1.05 | 0.93 | 0.762 | 0.489 | 0.759 | 0.835 | 0.902 | 1.02 | 0.489 | 0.308
2 | NCI-H1993 | 0.472 | 0.569 | 0.453 | 0.444 | 0.585 | 0.728 | 0.724 | 0.751 | 0.761 | 0.752 | 0.513 | 0.554 | 0.495 | 0.542 | 0.581 | 0.8 | 0.714 | 0.713 | 0.608
3 | NCI-H2009 | 0.256 | 0.266 | 0.283 | 0.245 | 0.33 | 1.32 | 1.26 | 1.26 | 1.22 | 1.12 | 0.732 | 0.77 | 0.582 | 0.626 | 0.731 | 1.16 | 1.15 | 0.934 | 0.735
4 | NCI-H2023 | 0.62 | 0.543 | 0.427 | 0.493 | 0.716 | 0.969 | 0.867 | 0.715 | 0.821 | 1.07 | 0.501 | 0.509 | 0.399 | 0.387 | 0.389 | 0.45 | 0.242 | 0.131 | 0.0929
5 | NCI-H2085 | 0.513 | 0.569 | 0.576 | 0.435 | 0.384 | 0.763 | 0.987 | 0.882 | 0.914 | 1.08 | 0.8 | 0.822 | 0.674 | 0.831 | 0.755 | 0.894 | 0.963 | 0.932 | 0.587
6 | NCI-H2087 | 0.217 | 0.205 | 0.158 | 0.207 | 0.224 | 1.44 | 1.1 |  | 1.22 | 1.29 | 0.67 | 0.595 |  | 0.46 | 0.567 | 0.91 | 0.865 | 0.657 | 
7 | NCI-H2126 | 0.674 | 0.568 | 0.553 | 0.51 | 0.619 | 1.2 | 1.18 | 1.06 | 1.01 | 1.14 | 0.578 | 0.698 | 0.674 | 0.741 | 0.771 | 0.64 | 0.378 | 0.341 | 0.285
